Laboratory results from patent publication US8124788B2, “Spirocyclic cyclohexane compounds with analgesic activity” (Gruenenthal GmbH, priority 2006, dated 2012).

Target: T1, human μ opiate receptor (Homo sapiens, UniProt P35372)
T1 construct: purchased PerkinElmer Life Sciences, Zaventem, Belgium RB-HOM; host or cells: CHO-K1 cells (recombinant expression)
Test: Affinity for the human μ opiate receptor ([3H]-naloxone displacement, CHO-K1 membrane preparation, SPA)
Format: binding
Settings: for μ opioid receptor [1 μmol], % inhibition: compounds prepared via automated synthesis, single measurements at a test concentration of 1 μM; for μ opioid receptor [1 μM], % inhibition: 1 μM test substance, displacement of [3H]-naloxone
Procedure: The receptor affinity for the human μ opiate receptor is determined in a homogeneous set-up in microtitre plates. For this purpose, dilution series of the substances to be tested are incubated with a receptor membrane preparation (15-40 μg of protein/250 μl of incubation batch) of CHO-K1 cells which express the human μ opiate receptor (RB-HOM receptor membrane preparation from PerkinElmer Life Sciences, Zaventem, Belgium) in the presence of 1 nmol/l of the radioactive ligand [^3H]-naloxone (NET719, PerkinElmer Life Sciences, Zaventem, Belgium) and 1 mg of WGA-SPA-Beads (wheat germ agglutinin SPA beads from Amersham/Pharmacia, Freiburg, Germany) in a total volume of 250 μl for 90 minutes at room temperature. 50 mmol/l of Tris-HCl supplemented with 0.06% of bovine serum albumin are used as the incubation buffer. 100 μmol/l of naloxone are additionally added for determination of the non-specific binding. After the end of the ninety-minute incubation time, the microtitre plates are centrifuged for 20 minutes at 1,000 g and the radioactivity is measured in a β-counter (Microbeta-Trilum, PerkinElmer Wallac, Freiburg, Germany). The percentage displacement of the radioactive ligand from its binding to the human μ opiate receptor is determined at a concentration of the test substances of 1 μmol/l and stated as the percentage inhibition of the specific binding. Starting from the percentage displacement by various concentrations of the test substances, IC50 inhibitory concentrations which cause a 50 percent displacement of the radioactive ligand are calculated. By conversion by means of the Cheng-Prusoff relationship, Ki values for the test substances are obtained.

T1 sequence (P35372 whole entry): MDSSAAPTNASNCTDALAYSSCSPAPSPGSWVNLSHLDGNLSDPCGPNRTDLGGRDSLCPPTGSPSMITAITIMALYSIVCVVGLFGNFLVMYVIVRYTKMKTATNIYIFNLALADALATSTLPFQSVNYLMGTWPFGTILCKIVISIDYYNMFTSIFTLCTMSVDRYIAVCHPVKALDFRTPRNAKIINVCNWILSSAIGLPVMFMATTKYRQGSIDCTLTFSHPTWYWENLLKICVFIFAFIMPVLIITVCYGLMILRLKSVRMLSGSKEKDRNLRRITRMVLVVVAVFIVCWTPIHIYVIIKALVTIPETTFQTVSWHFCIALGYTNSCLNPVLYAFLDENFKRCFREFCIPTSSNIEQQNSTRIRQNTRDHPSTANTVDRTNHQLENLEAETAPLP

Row | Structure (SMILES) | μ opioid receptor [1 μmol], % inhibition [%] | other results
1 | CC(Oc1ccccc1)C(=O)N1CCc2c([nH]c3ccccc23)C12CCC(C(c1cccc(F)c1)N(C)C)CC2 (stereo not drawn) [Compound 127, 2-(2-phenoxypropanoyl)-{1,1-[3-(dimethylamino-(3-fluorophenyl)methyl)-pentamethylene]-3,4-dihydro-1H-2,9-diazafluorene}] | 55 | –
2 | CCC(=O)N1CCc2c([nH]c3ccccc23)C12CCC(C(c1ccccc1)N(C)C)CC2 (stereo not drawn) [Compound 102, 2-propionyl-{1,1-[3-(dimethylamino-phenylmethyl) -pentamethylene]-3,4-dihydro-1H-2,9-diazafluorene}] | 55 | –
3 | CC1Cc2c([nH]c3ccc(F)cc23)C2(CCC(C(c3ccc(Cl)cc3)N(C)C)CC2)O1 (stereo not drawn) [Compound 55, 6-Fluoro-3-methyl-1,1-[3-(dimethylamino-(4-chlorophenyl) -methyl)-penta-methylene]-1,3,4,9-tetrahydropyrano[3,4-b]indole] | – | μ opioid receptor [1 μM], % inhibition: 58%
4 | CC(Oc1ccccc1)C(=O)N1CCc2c([nH]c3ccccc23)C12CCC(C(c1ccc(F)cc1)N(C)C)CC2 (stereo not drawn) [Compound 141, 2-(2-phenoxypropanoyl)-{1,1-[3-(dimethylamino-(4-fluorophenyl)methyl)-pentamethylene]-3,4-dihydro-1H-2,9-diazafluorene}] | 47 | –
5 | CC(Oc1ccccc1)C(=O)N1CCc2c([nH]c3ccccc23)C12CCC(C(c1ccc(Cl)cc1)N(C)C)CC2 (stereo not drawn) [Compound 133, 2-(2-phenoxypropanoyl)-{1,1-[3-(dimethylamino-(4-chlorophenyl)methyl)-pentamethylene]-3,4-dihydro-1H-2,9-diazafluorene}] | 71 | –
6 | CC(C)CC(=O)N1CCc2c([nH]c3ccccc23)C12CCC(C(c1ccccc1)N(C)C)CC2 (stereo not drawn) [Compound 138, 1-{1,1-[3-(dimethylamino-phenylmethyl)-pentamethylene]-3,4-dihydro-1H-2,9-diazafluoren-2-yl}-3-methylbutan-1-one] | 58 | –
7 | CC(=O)N1CCc2c([nH]c3ccccc23)C12CCC(C(c1cccc(F)c1)N(C)C)CC2 (stereo not drawn) [Compound 89, acetyl-{1,1-[3-(dimethylamino-(3-fluorophenyl)methyl) -pentamethylene]-3,4-dihydro-1H-2,9-diazafluorene}] | 10 | –
8 | CC(=Cc1ccccc1)C(=O)N1CCc2c([nH]c3ccccc23)C12CCC(C(c1ccc(F)cc1)N(C)C)CC2 (stereo not drawn) [Compound 64, 1-{1,1-[3-(dimethylamino-(4-fluorophenyl)methyl) -pentamethylene]-3,4-dihydro-1H-2,9-diazafluoren-2-yl}-2-methyl-3-phenylprop-2-en-1-one] | 15 | –
9 | Cc1ccc2[nH]c3c(c2c1)CC(C)OC31CCC(C(CCc2ccccc2)N(C)C)CC1 (stereo not drawn) [Compound 43, 3,6-Dimethyl-1,1-[3-(dimethylamino-(phenylethyl)-methyl)-pentamethylene]-1,3,4,9-tetrahydropyrano[3,4-b]indole] | – | μ opioid receptor [1 μM], % inhibition: 42%
10 | CN(C)C(c1cccc(F)c1)C1CCC2(CC1)c1[nH]c3ccccc3c1CCN2C(=O)C=Cc1ccccc1Cl (stereo not drawn) [Compound 72, 1-{1,1-[3-(dimethylamino-(3-fluorophenyl)methyl) -pentamethylene]-3,4-dihydro-1H-2,9-diazafluoren-2-yl}-3-(2-chlorophenyl)prop-2-en-1-one] | 24 | –
11 | CN(C)C(c1ccc(Cl)cc1)C1CCC2(CC1)c1[nH]c3ccccc3c1CCN2C(=O)C1CC1 (stereo not drawn) [Compound 96, 2-(cyclopropylcarbonyl)-{1,1-[3-(dimethylamino-(4-chlorophenyl)methyl)-pentamethylene]-3,4-dihydro-1H-2,9-diazafluorene}] | 18 | –
12 | CN(C)C(c1ccc(Cl)cc1)C1CCC2(CC1)c1[nH]c3ccccc3c1CCN2C(=O)CCc1ccccc1 (stereo not drawn) [Compound 135, (3-phenylpropanoyl)-1-{1,1-[3-(dimethylamino-(4-chlorophenyl)methyl)-pentamethylene]-3,4-dihydro-1H-2,9-diazafluorene}] | – | μ opioid receptor [1 μmol], % inhibition (1 µM): 38%
13 | COc1ccc(CC(=O)N2CCc3c([nH]c4ccccc34)C23CCC(C(c2cccc(F)c2)N(C)C)CC3)cc1OC (stereo not drawn) [Compound 67, 2-[(3,4-dimethoxyphenyl)acetyl]-{1,1-[3-(dimethylamino-(3-fluorophenyl)methyl)-pentamethylene]-3,4-dihydro-1H-2,9-diazafluorene}] | 25 | –
14 | CC(Oc1ccccc1)C(=O)N1CCc2c([nH]c3ccccc23)C12CCC(C(c1ccccc1)N(C)C)CC2 (stereo not drawn) [Compound 137, 2-(2-phenoxypropanoyl)-{1,1-[3-(dimethylamino-phenylmethyl)-pentamethylene]-3,4-dihydro-1H-2,9-diazafluorene}] | 68 | –
15 | CN(C)C(c1ccc(F)cc1)C1CCC2(CC1)c1[nH]c3ccccc3c1CCN2C(=O)C1CCCC1 (stereo not drawn) [Compound 109, 2-cyclopentylcarbonyl-{1,1-[3-(dimethylamino-(4-fluorophenyl)methyl)-pentamethylene]-3,4-dihydro-1H-2,9-diazafluorene}] | 21 | –
16 | CC(C)C(=O)N1CCc2c([nH]c3ccccc23)C12CCC(C(c1ccc(Cl)cc1)N(C)C)CC2 (stereo not drawn) [Compound 119, 2-isobutyryl-{1,1-[3-(dimethylamino-(4-chlorophenyl)methyl)-pentamethylene]-3,4-dihydro-1H-2,9-diazafluorene}] | 40 | –
17 | CN(C)C(c1cccc(F)c1)C1CCC2(CC1)c1[nH]c3ccccc3c1CCN2C(=O)Cc1cccs1 (stereo not drawn) [Compound 93, 2-(2-thienylacetyl)-{1,1-[3-(dimethylamino-(3-fluorophenyl)methyl)-pentamethylene]-3,4-dihydro-1H-2,9-diazafluorene}] | 19 | –
18 | CN(C)C(c1ccc(Cl)cc1)C1CCC2(CC1)c1[nH]c3ccccc3c1CCN2C(=O)CCc1ccccc1 (stereo not drawn) [Compound 131, 2-(3-phenylpropanoyl)-{1,1-[3-(dimethylamino-(4-chlorophenyl)methyl)-pentamethylene]-3,4-dihydro-1H-2,9-diazafluorene}] | – | μ opioid receptor [1 μmol], % inhibition (1 µM): 51%
19 | CC(C)CC(=O)N1CCc2c([nH]c3ccccc23)C12CCC(C(c1cccc(F)c1)N(C)C)CC2 (stereo not drawn) [Compound 129, 1-{1,1-[3-(dimethylamino-(3-fluorophenyl)methyl) -pentamethylene]-3,4-dihydro-1H-2,9-diazafluoren-2-yl}-3-methylbutan-1-one] | 74 | –
20 | CN(C)C(c1ccccc1)C1CCC2(CC1)c1[nH]c3ccccc3c1CCN2C(=O)COCc1ccccc1 (stereo not drawn) [Compound 83, 2-(benzyloxyacetyl)-{1,1-[3-(dimethylamino-phenylmethyl) -pentamethylene]-3,4-dihydro-1H-2,9-diazafluorene}] | 50 | –
21 | CN(C)C(c1ccc(F)cc1)C1CCC2(CC1)c1[nH]c3ccccc3c1CCN2C(=O)COCc1ccccc1 (stereo not drawn) [Compound 88, 2-(benzyloxyacetyl)-{1,1-[3-(dimethylamino-(4-fluorophenyl)methyl)-pentamethylene]-3,4-dihydro-1H-2,9-diazafluorene}] | 11 | –
